Data taken from publication PMC8621101, “Inhibition of XPO-1 Mediated Nuclear Export through the Michael-Acceptor Character of Chalcones” (Pharmaceuticals, 2021).

How the values were obtained:
Z-138 cells = assay: Cell proliferation assay (IncuCyte confluence), Z-138; assay type: cell-based; details: Homo sapiens; Z-138 non-Hodgkin lymphoma; 72 h; mean of two independent experiments ± SEM; read-out: IC50 antiproliferative activity Z-138
Procedure: Cancer cell lines HCT-116, NCI-H460, HL-60, K-562 and Z-138 were acquired from the American Type Culture Collection (ATCC, Manassas, VA, USA). The DND-41 cell line was purchased from the Deutsche Sammlung von Mikroorganismen und Zellkulturen (DSMZ Leibniz-Institut, Brunswick, Germany), and the HAP-1 cell line was ordered from Horizon Discovery (Horizon Discovery Group, Water Beach, UK). All cell lines were cultured as recommended by the suppliers. Culture media were purchased from Gibco Life Technologies and supplemented with 10% fetal bovine serum (HyClone, GE Healthcare Life Sciences, Chicago, Illinois, USA).
Adherent cell lines HCT-116, NCI-H460 and Hap-1 cells were seeded at a density between 500 and 1500 cells per well in 384-well tissue culture plates (Greiner). After overnight incubation, cells were treated with different concentrations of the test compounds. Suspension cell lines HL-60, K-562, Z-138 and DND-41 were seeded at densities ranging from 2500 to 5500 cells per well in 384-well culture plates containing the test compounds at the same concentration points.

[1] = GSH reactivity assay (HPLC, DTNB quench); assay type: physicochemical; details: 500 µM compound, 5 mM GSH, 37 °C; for Reaction with GSH (hetero-Michael addition), qualitative: PBS pH 7.4 with EDTA:DMSO 1:1; for Reversibility of GSH adducts (retro-Michael), qualitative: longer incubation
Procedure: In order to determine if these chalcones could react with thiol groups through a hetero-Michael addition reaction, a few selected compounds (9, 10, 13 and 18) were incubated with glutathione (GSH). After different incubation times, the reactions were quenched by adding 5,5′-dithiobis(2-nitrobenzoic acid) (DTNB, Ellman´s reagent) (1:1 ratio with respect to the initial concentration of GSH). The course of the reaction was followed by HPLC, adapting reported procedures. […] Thus, although this assay is only qualitative, the tendency observed among these chalcones nicely fits the reactivity described for α-X-2´3,4,4´-tetramethylchalcones.
A 500 µM sample of the tested compound was incubated with 5 mM reduced L-glutathione for 24 h at 37 °C with a final volume of 200 μL. As a solvent system, 20 mM PBS buffer pH 7.4 with 2 mM EDTA:DMSO (1:1) was used. To perform the assay, stock solutions of 20 mM of the chalcones (9, 10, 13 and 18) and 15 mM of reduced L-glutathione were freshly prepared for every experiment and then diluted properly to give the final electrophile:nucleophile ratio (1:10). A 5 mM solution of 5,5′-dithiobis(2-nitrobenzoic acid) (DTNB) was prepared in the same solvent system to quench the reaction. After different time points (10 min, 1 h, 4 h and 24 h), an aliquot of 20 μL of the incubation mixture was quenched by adding 20 μL of the DTNB stock solution, mixed thoroughly, and then analyzed by HPLC. HPLC analysis was performed in Agilent 1120 compact LC, column ACE 5 C18-300 (15 cm × 4.6 mm); UV detection was performed at λ = 254 nm. Solvents used were acetonitrile for bottle A and H2O (containing 0.05% TFA) for bottle B, and the flow rate was 1mL/min. The gradients used were: (A) incubations with chalcone 9: from 10% to 80% of solvent A in 10 min; (B) incubations with chalcones 10 and 18: from 10% to 100% of solvent A in 10 min. The new peaks were analysed by LC-MS. As controls, a 500 μM solution of the α,β-unsaturated compound was also analysed, and a 5 mM reduced L-glutathione solution was quenched by adding DNTB at the same time points. In general, after 6 h of incubation, no GSH was detected.

SMILES	IC50 (Z-138 cells) [nM]	Reaction with GSH (hetero-Michael addition), qualitative [1]	Reversibility of GSH adducts (retro-Michael), qualitative [1]
O=C(/C=C/c1cncnc1)c1ccc2ccccc2c1 [Compound 9, (E)-1-(Naphthalen-2-yl)-3-(pyrimidin-5-yl)prop-2-en-1-one]	1800 ± 50	quickly reacted with GSH	underwent a retro-Michael addition reaction
COc1cc(OC)cc(C(=O)/C=C/c2cncnc2)c1 [Compound 10, (E)-1-(3′,5′-Dimethoxyphenyl)-3-(pyrimidin-5′’-yl)prop-2-en-1-one]	500 ± 50	quickly reacted with GSH	underwent a retro-Michael addition reaction
